Results on two compounds are retold here after patent US12721831B2, “Tetrahydrocurcuminoid-metal complexes, manufacturing methods thereof, and uses thereof” (Probioticsmart, LLC, priority 2020, dated 2026).

One series relates to influenza varieties. To be noted: laboratory cells infected with influenza varieties; cited from earlier work.
For series [1] the following is noted: cited from earlier work.
For series [2] the following is noted: 1 gram oral, chicken serum, 280 nm and 425 nm.
Experimental: Three chickens (Rhode Island Red) that were each 2 years old weighing 5 pounds were selected, and 1 ml of blood was removed from the wing vein for baseline measurements. The blood was allowed to clot and the plasma was removed by centrifugation for subsequent baseline analysis. The chickens were allowed to rest overnight. The contents of each of the respective syringes were then administered to separate chickens via the mouth, ensuring that the contents were consumed. Blood was removed at 2, 4, and 24 hours from each bird and allowed to clot.
Series [3] is described as follows: DPPH radical scavenging antioxidant assay. It counts as biochemical. The settings on record: 0.125-0.50 mg/mL in ethanol, 30 min at RT, 517 nm; ranking among the three.
Experimental: The reaction mixture was mixed thoroughly and left in the dark at RT for 30 min. The absorbance of the mixture was measured spectrophotometrically at 517 nm. Trolox was used as reference. Percentage DPPH radical scavenging activity was calculated by the following equation:
[formula] • Acs: Blank 1—Blank 2 • As: Absorbance of samples—Blank 2 Then % of inhibition was plotted against concentration.

In the case of `COc1cc(/C=C/C(=O)CC(=O)/C=C/c2ccc(O)c(OC)c2)ccc1O` [curcumin], the “reduction of viral replication” value in the series on influenza varieties is recorded as “over 90%”.

Take `COc1cc(CCC(=O)CC(=O)CCc2ccc(O)c(OC)c2)ccc1O` [tetrahydrocurcumin]: the water solubility result in series [1] is listed as “not very water soluble”. The “HPLC peaks in serum at the 2-hour, 4-hour, and 24-hour timepoints” value in series [2] is given as “could be seen”. The “antioxidant activity (DPPH radical scavenging, FIG. 16)” value in series [3] is recorded as “higher antioxidant activity than curcumin but less than the tetrahydrocurcumin-Zn-curcumin”.
